Data: ChEMBL document CHEMBL2086392, “Isomannide derivatives as new class of inhibitors for human kallikrein 7” (Bioorg Med Chem Lett, 2012)

How the values were obtained:
[1] = Solubility of the compound in 10% DMSO; assay type: physicochemical
[2] = Solubility of the compound in aqueous buffer; assay type: physicochemical
Kallikrein-7 [3] = biological target: T1, Kallikrein-7 (Homo sapiens, UniProt P49862); assay: Inhibition of human recombinant KLK7 expressed in insect cell/baculovirus using Abz-KLYSSKQ-EDDnp as substrate by FRET analysis
T1 sequence (P49862 whole entry): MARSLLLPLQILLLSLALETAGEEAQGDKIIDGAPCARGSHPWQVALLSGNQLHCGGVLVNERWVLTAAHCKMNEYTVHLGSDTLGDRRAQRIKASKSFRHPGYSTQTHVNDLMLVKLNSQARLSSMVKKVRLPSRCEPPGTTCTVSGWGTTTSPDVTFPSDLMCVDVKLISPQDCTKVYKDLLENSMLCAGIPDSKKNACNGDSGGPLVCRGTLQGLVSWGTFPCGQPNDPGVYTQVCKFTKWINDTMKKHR

Kallikrein-7 [4] = biological target: T1, Kallikrein-7; assay: Competitive inhibition of recombinant human KLK7 expressed in insect cell/baculovirus using Abz-KLYSSKQ-EDDnp as substrate by Dixon plot analysis
Kallikrein-5 [5] = biological target: T2, Kallikrein-5 (Homo sapiens, UniProt Q9Y337); assay: Inhibition of human recombinant KLK5 expressed in insect cell/baculovirus using Abz-KLYSSKQ-EDDnp as substrate by FRET analysis
T2 sequence (Q9Y337 whole entry): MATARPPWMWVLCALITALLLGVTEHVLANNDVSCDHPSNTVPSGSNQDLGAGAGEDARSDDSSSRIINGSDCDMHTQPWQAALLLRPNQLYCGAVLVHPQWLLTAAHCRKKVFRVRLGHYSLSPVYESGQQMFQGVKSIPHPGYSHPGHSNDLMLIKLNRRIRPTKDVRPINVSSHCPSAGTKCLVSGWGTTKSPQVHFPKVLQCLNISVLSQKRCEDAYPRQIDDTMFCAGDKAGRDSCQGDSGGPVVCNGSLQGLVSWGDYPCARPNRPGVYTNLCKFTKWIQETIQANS

Kallikrein-5 [6] = biological target: T2, Kallikrein-5; assay: Competitive inhibition of human KLK5 expressed in insect cell/baculovirus using Abz-KLYSSKQ-EDDnp as substrate by Dixon plot analysis

Q: Which solubility [1] does the source give for `COc1ccc(/C=C(\NC(=O)c2ccccc2)C(=O)N[C@@H]2CO[C@H]3[C@@H]2OC[C@H]3OCc2ccccc2)cc1` (stereo in doubt) here?
A: Insoluble

Q: For `O=C(N[C@@H]1CO[C@H]2[C@@H]1OC[C@H]2OCc1ccccc1)/C(=C/c1cc2ccccc2o1)NC(=O)c1ccccc1`, which solubility [1] is on record?
A: Insoluble

Q: With `O=C(N[C@@H]1CO[C@H]2[C@@H]1OC[C@H]2OCc1ccccc1)/C(=C/c1cc2ccccc2s1)NC(=O)c1ccccc1` as the compound, how does the solubility [1] read?
A: Insoluble

Q: Which solubility [1] does the source give for `O=C(N[C@@H]1CO[C@H]2[C@@H]1OC[C@H]2OCc1ccccc1)/C(=C/c1ccc(Cl)cc1)NC(=O)c1ccccc1` (stereo in doubt) here?
A: Insoluble

Q: Which solubility [1] does the source give for `O=C(N[C@@H]1CO[C@H]2[C@@H]1OC[C@H]2OCc1ccccc1)/C(=C/c1ccccc1)NC(=O)c1ccccc1` here?
A: Insoluble

Q: Which solubility [2] does the source give for `O=C(N[C@@H]1CO[C@H]2[C@@H]1OC[C@H]2OCc1ccccc1)/C(=C/c1cccs1)NC(=O)c1ccccc1` (stereo in doubt) here?
A: soluble

Q: And the IC50 (Kallikrein-7 [3])?
A: 13.3 µM

Q: What about the Ki (Kallikrein-7 [4]) of the same compound?
A: 1.8 µM

Q: And the IC50 (Kallikrein-5 [5])?
A: 99.2 µM

Q: And the Ki (Kallikrein-5 [6])?
A: 70.7 µM

Q: Which solubility [1] does the source give for `O=C(N[C@@H]1CO[C@H]2[C@@H]1OC[C@H]2OCc1ccccc1)/C(=C/c1ccc2ccccc2c1)NC(=O)c1ccccc1` here?
A: Insoluble

Q: With `O=C(N[C@@H]1CO[C@H]2[C@@H]1OC[C@H]2OCc1ccccc1)/C(=C/c1ccc(C(F)(F)F)cc1)NC(=O)c1ccccc1` (stereo in doubt) as the compound, how does the solubility [1] read?
A: Insoluble

Q: For `O=C(N[C@@H]1CO[C@H]2[C@@H]1OC[C@H]2OCc1ccccc1)/C(=C/c1cccnc1)NC(=O)c1ccccc1` (stereo in doubt), which solubility [2] is on record?
A: soluble

Q: What about the IC50 (Kallikrein-7 [3]) of the same compound?
A: 196 µM

Q: And the Ki (Kallikrein-7 [4])?
A: 75.1 µM

Q: What about the IC50 (Kallikrein-5 [5]) of the same compound?
A: 324 µM

Q: And the Ki (Kallikrein-5 [6])?
A: 200 µM

Q: For `CC(=O)N/C(=C\c1cccs1)C(=O)N[C@@H]1CO[C@H]2[C@@H]1OC[C@H]2OCc1ccccc1` (stereo in doubt), which solubility [2] is on record?
A: soluble

Q: And the IC50 (Kallikrein-7 [3])?
A: 161 µM

Q: And the Ki (Kallikrein-7 [4])?
A: 77.4 µM

Q: What about the IC50 (Kallikrein-5 [5]) of the same compound?
A: 101 µM

Q: And the Ki (Kallikrein-5 [6])?
A: 71.9 µM

Q: Which solubility [2] does the source give for `O=C(N[C@@H]1CO[C@H]2[C@@H]1OC[C@H]2OCc1ccccc1)/C(=C/c1ccc2c(c1)OCO2)NC(=O)c1ccccc1` (stereo in doubt) here?
A: soluble

Q: And the IC50 (Kallikrein-7 [3])?
A: 205 µM

Q: What about the Ki (Kallikrein-7 [4]) of the same compound?
A: 80.3 µM

Q: What about the IC50 (Kallikrein-5 [5]) of the same compound?
A: > 1000 µM

Q: And the Ki (Kallikrein-5 [6])?
A: 357 µM

Q: For `O=C(N[C@@H]1CO[C@H]2[C@@H]1OC[C@H]2OCc1ccccc1)/C(=C/c1ccco1)NC(=O)c1ccccc1` (stereo in doubt), which solubility [2] is on record?
A: soluble

Q: What about the IC50 (Kallikrein-7 [3]) of the same compound?
A: 16.3 µM

Q: And the Ki (Kallikrein-7 [4])?
A: 3 µM

Q: What about the IC50 (Kallikrein-5 [5]) of the same compound?
A: 99.1 µM

Q: What about the Ki (Kallikrein-5 [6]) of the same compound?
A: 70.4 µM

Q: For `O=C(N[C@@H]1CO[C@H]2[C@@H]1OC[C@H]2OCc1ccccc1)/C(=C/c1c[nH]c2ccccc12)NC(=O)c1ccccc1` (stereo in doubt), which solubility [1] is on record?
A: Insoluble

Q: With `O=C(N[C@@H]1CO[C@H]2[C@@H]1OC[C@H]2OCc1ccccc1)/C(=C/c1ccc(F)cc1)NC(=O)c1ccccc1` (stereo in doubt) as the compound, how does the solubility [1] read?
A: Insoluble

Q: For `O=C(N[C@@H]1CO[C@H]2[C@@H]1OC[C@H]2OCc1ccccc1)/C(=C/c1ccc(Br)cc1)NC(=O)c1ccccc1` (stereo in doubt), which solubility [1] is on record?
A: Insoluble
